Assay results published in US20230113037A1 (Bayer Aktiengesellschaft, priority 2019, published 2023).
“And” between values parts separate entries of the source, which are not always exact repeats. Identical values can stand only once. Like-named read-outs stand apart in the source and are kept apart here.

Columns and labels:
AHR [1] = molecular target: T1, AHR (Mus musculus, UniProt P30561); experiment: In vitro assay 3: antagonism in mouse cell line (AHR transactivation, firefly luciferase reporter, kynurenic acid prestimulated); assay type: cell-based
T1 sequence (P30561 1-848 P471L/N533S/M589L): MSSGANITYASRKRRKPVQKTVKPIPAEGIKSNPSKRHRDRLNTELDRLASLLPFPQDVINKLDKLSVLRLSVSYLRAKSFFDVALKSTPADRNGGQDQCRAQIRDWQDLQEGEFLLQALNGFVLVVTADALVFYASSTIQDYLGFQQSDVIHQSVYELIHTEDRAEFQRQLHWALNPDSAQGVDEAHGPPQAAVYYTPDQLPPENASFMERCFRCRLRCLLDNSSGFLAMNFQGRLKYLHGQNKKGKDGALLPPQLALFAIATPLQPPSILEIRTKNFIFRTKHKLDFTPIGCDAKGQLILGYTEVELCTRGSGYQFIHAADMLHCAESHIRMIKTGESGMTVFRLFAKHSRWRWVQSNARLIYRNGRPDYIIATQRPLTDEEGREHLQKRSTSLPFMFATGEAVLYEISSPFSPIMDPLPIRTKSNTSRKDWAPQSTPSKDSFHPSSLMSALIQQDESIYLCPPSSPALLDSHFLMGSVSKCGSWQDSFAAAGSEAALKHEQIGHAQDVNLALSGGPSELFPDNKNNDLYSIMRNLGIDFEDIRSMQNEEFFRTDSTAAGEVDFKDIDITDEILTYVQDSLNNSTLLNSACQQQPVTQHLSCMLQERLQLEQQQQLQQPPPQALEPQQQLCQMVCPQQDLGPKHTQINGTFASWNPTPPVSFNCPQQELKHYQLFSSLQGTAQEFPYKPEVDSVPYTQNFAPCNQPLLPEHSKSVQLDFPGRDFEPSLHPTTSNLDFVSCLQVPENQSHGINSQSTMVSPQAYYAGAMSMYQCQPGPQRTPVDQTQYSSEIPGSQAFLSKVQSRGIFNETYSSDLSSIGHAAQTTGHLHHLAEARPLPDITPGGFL
Summary of the method: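 Mouse cells stably carrying a DRE-driven, AHR-inducible firefly luciferase reporter were prestimulated with the endogenous agonist kynurenic acid before compound addition. Luciferase activity was measured by luminescence and normalized to positive and negative controls, with cells lacking kynurenic acid serving as full-inhibition control. Repeat tests are reported as mean or median.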

AHR [2] = molecular target: T2, AHR (Homo sapiens, UniProt P35869); experiment: In vitro assay 1: antagonism in human cell line (AHR transactivation, firefly luciferase reporter, kynurenic acid prestimulated); assay type: cell-based; conditions: AHR Antagonism Human IC50 [M]
T2 construct: U87 MG glioblastoma cells (ATCC #HTB-14) endogenously expressing AHR; endogenous in cells; host or cells: U87 MG glioblastoma cells (ATCC #HTB-14)
T2 sequence (P35869 11-848): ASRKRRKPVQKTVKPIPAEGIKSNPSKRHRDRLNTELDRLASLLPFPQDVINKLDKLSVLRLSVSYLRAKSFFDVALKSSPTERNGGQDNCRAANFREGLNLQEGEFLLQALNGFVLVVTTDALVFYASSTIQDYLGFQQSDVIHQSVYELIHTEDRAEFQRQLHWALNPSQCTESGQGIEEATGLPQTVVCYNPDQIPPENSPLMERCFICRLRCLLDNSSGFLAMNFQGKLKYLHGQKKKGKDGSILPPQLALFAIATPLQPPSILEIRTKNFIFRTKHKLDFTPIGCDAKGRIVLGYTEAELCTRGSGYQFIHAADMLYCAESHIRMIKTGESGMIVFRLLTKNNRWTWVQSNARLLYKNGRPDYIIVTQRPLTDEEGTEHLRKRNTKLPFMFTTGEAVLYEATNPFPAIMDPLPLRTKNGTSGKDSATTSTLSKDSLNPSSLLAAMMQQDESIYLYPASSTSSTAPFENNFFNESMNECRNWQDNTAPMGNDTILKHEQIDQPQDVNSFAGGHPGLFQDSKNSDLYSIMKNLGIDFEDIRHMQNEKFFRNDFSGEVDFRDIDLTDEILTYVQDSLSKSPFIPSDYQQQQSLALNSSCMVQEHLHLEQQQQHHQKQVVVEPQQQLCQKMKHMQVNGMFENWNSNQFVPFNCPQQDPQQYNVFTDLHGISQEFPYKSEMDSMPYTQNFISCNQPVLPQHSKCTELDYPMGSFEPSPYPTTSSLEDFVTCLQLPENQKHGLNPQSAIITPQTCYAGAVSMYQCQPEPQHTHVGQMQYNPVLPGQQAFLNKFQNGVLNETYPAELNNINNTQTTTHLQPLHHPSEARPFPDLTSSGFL
Summary of the method: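 U87 MG + DRE-firefly/constitutive-Renilla stable reporters; kynurenic acid prestim; dual-luc read; Renilla = tox; normalized vs pos/neg controls (pos: 150 μM KYNA + 5 μM staurosporine).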

[3] = mouse Hepa 1c1c7 cells, 200 μM kynurenic acid, 20 hours, read-out: AHR Antagonism Mouse IC50

Row | SMILES | IC50 (AHR [1]; [3]) | IC50 (AHR [2]) [M] | IC50 (AHR [1]; read-out: AHR Antagonism Mouse IC50, mouse Hepa 1c1c7 cells, 200 μM kynurenic acid, 20 hours) [nM]
1 | COc1cccc(-c2nc3c4ccccc4nc(N[C@H](C)C(=O)NC4CCC4)n3n2)c1 [Example 109, N-cyclobutyl-N^2-[2-(3-methoxyphenyl)[1,2,4]triazolo[1,5-c]quinazolin-5-yl]-D-alaninamide] | 4.15 nM | 6.94e-09 | –
2 | COc1cccc(-c2nc3c4ccccc4nc(N[C@H](C)C(=O)N(C)C)n3n2)c1 [Example 110, N^2-[2-(3-methoxyphenyl)[1,2,4]triazolo[1,5-c]quinazolin-5-yl]-N,N-dimethyl-D-alaninamide] | 4.9 nM | 1.01e-08 | –
3 | COc1cccc(-c2nc3c4ccccc4nc(N[C@H](C)C(=O)NCCO)n3n2)c1 [Example 111, N-(2-hydroxyethyl)-N^2-[2-(3-methoxyphenyl)[1,2,4]triazolo[1,5-c]quinazolin-5-yl]-D-alaninamide] | 15.8 nM | 1.42e-08 | –
4 | COc1cccc(-c2nc3c4ccccc4nc(N[C@H](C)C(=O)NCCCO)n3n2)c1 [Example 112, N-(3-hydroxypropyl)-N^2-[2-(3-methoxyphenyl)[1,2,4]triazolo[1,5-c]quinazolin-5-yl]-D-alaninamide] | 6 nM | 3.79e-08 | –
5 | COc1cccc(-c2nc3c4ccccc4nc(N[C@H](CCS(C)(=O)=O)C(N)=O)n3n2)c1 [Example 113, (2R)-2-{[2-(3-methoxyphenyl)[1,2,4]triazolo[1,5-c]quinazolin-5-yl]amino}-4-(methylsulfonyl)butanamide] | 719 nM | 1.58e-05 | –
6 | COc1cccc(-c2nc3c4ccccc4nc(N[C@@H](CCCCN)C(N)=O)n3n2)c1 [Example 114, N^2-[2-(3-methoxyphenyl)[1,2,4]triazolo[1,5-c]quinazolin-5-yl]-L-lysinamide] | 5510 nM and > 5710 nM | > 2e-05 | –
7 | COc1cccc(-c2nc3c4ccccc4nc(NC4CNCCNC4=O)n3n2)c1 (centres unmarked) [Example 115, 6-{[2-(3-methoxyphenyl)[1,2,4]triazolo[1,5-c]quinazolin-5-yl]amino}-1,4-diazepan-5-one] | 68 nM | 1.11e-06 | –
8 | O=C1NCCCC[C@H]1Nc1nc2ccccc2c2nc(-c3ccccn3)nn12 [Example 124, (3R)-3-{[2-(pyridin-2-yl)[1,2,4]triazolo[1,5-c]quinazolin-5-yl]amino}azepan-2-one] | 54.1 nM | 2.83e-08 | –
9 | O=C1NCCCC[C@H]1Nc1nc2ccccc2c2nc(-c3cccnc3)nn12 [Example 125, (3R)-3-{[2-(pyridin-3-yl)[1,2,4]triazolo[1,5-c]quinazolin-5-yl]amino}azepan-2-one] | 4.64 nM | 5.68e-10 | –
10 | O=C1NCCCC[C@H]1Nc1nc2ccccc2c2nc(-c3ccncc3)nn12 [Example 126, (3R)-3-{[2-(pyridin-4-yl)[1,2,4]triazolo[1,5-c]quinazolin-5-yl]amino}azepan-2-one] | 14.8 nM | 1.3e-08 | –
11 | CN(C)c1ccc(-c2nc3c4ccccc4nc(N[C@@H]4CCCCNC4=O)n3n2)cc1 [Example 128, (3R)-3-({2-[4-(dimethylamino)phenyl][1,2,4]triazolo[1,5-c]quinazolin-5-yl}amino)azepan-2-one] | 0.316 nM | 1.5e-09 | –
12 | O=C1NCCCC[C@H]1Nc1nc2ccccc2c2nc(-c3ccco3)nn12 [Example 130, (3R)-3-{[2-(furan-2-yl)[1,2,4]triazolo[1,5-c]quinazolin-5-yl]amino}azepan-2-one] | 5.82 nM | 4.55e-09 | –
13 | Cc1noc(-c2nc3c4ccccc4nc(N[C@@H]4CCCCNC4=O)n3n2)n1 [Example 131, (3R)-3-{[2-(3-methyl-1,2,4-oxadiazol-5-yl)[1,2,4]triazolo[1,5-c]quinazolin-5-yl]amino}azepan-2-one] | 93.8 nM | 1.79e-07 | –
14 | CCc1noc(-c2nc3c4ccccc4nc(N[C@@H]4CCCCNC4=O)n3n2)n1 [Example 132, (3R)-3-{[2-(3-ethyl-1,2,4-oxadiazol-5-yl)[1,2,4]triazolo[1,5-c]quinazolin-5-yl]amino}azepan-2-one] | 26.3 nM | 2.15e-08 | –
15 | CC(C)c1noc(-c2nc3c4ccccc4nc(N[C@@H]4CCCCNC4=O)n3n2)n1 [Example 133, (3R)-3-({2-[3-(propan-2-yl)-1,2,4-oxadiazol-5-yl][1,2,4]triazolo[1,5-c]quinazolin-5-yl}amino)azepan-2-one] | 32.7 nM | 1.92e-08 | –
16 | CC(C)(C)c1noc(-c2nc3c4ccccc4nc(N[C@@H]4CCCCNC4=O)n3n2)n1 [Example 134, (3R)-3-{[2-(3-tert-butyl-1,2,4-oxadiazol-5-yl)[1,2,4]triazolo[1,5-c]quinazolin-5-yl]amino}azepan-2-one] | 86.8 nM | 8.35e-08 | –
17 | O=C1NCCCC[C@H]1Nc1nc2ccccc2c2nc(-c3nc(C4CC4)no3)nn12 [Example 135, (3R)-3-{[2-(3-cyclopropyl-1,2,4-oxadiazol-5-yl)[1,2,4]triazolo[1,5-c]quinazolin-5-yl]amino}azepan-2-one] | 20.5 nM | 2.77e-08 | –
18 | O=C1NCCCC[C@H]1Nc1nc2ccccc2c2nc(-c3nc(C(F)(F)F)no3)nn12 [Example 136, (3R)-3-({2-[3-(trifluoromethyl)-1,2,4-oxadiazol-5-yl][1,2,4]triazolo[1,5-c]quinazolin-5-yl}amino)azepan-2-one] | 9.58 nM | 3.09e-08 | –
19 | O=C1NCCCC[C@H]1Nc1nc2c(F)cccc2c2nc(-c3cccc(F)c3)nn12 [Example 137, (3R)-3-{[7-fluoro-2-(3-fluorophenyl)[1,2,4]triazolo[1,5-c]quinazolin-5-yl]amino}azepan-2-one] | – | 2.16e-09 | 0.823
20 | COc1ccc(-c2nc3c4cccc(F)c4nc(N[C@@H]4CCCCNC4=O)n3n2)cc1 [Example 138, (3R)-3-{[7-fluoro-2-(4-methoxyphenyl)[1,2,4]triazolo[1,5-c]quinazolin-5-yl]amino}azepan-2-one] | 1.45 nM | 7.41e-10 | –
21 | COc1cccc(-c2nc3c4cccc(C)c4nc(N[C@@H]4CCCCNC4=O)n3n2)c1 [Example 140, (3R)-3-{[2-(3-methoxyphenyl)-7-methyl[1,2,4]triazolo[1,5-c]quinazolin-5-yl]amino}azepan-2-one] | 1.08 nM | 1.09e-09 | –
22 | COc1cccc(-c2nc3c4cccc(C)c4nc(N[C@H]4CCCCNC4=O)n3n2)c1 [Example 141] | 83.2 nM | 2.84e-08 | –
23 | Cc1cccc2c1nc(N[C@@H]1CCCCNC1=O)n1nc(-c3cnn(C)c3)nc21 [Example 142, (3R)-3-{[7-methyl-2-(1-methyl-1H-pyrazol-4-yl)[1,2,4]triazolo[1,5-c]quinazolin-5-yl]amino}azepan-2-one] | 21.1 nM | 2.15e-09 | –
24 | COc1ccc(-c2nc3c4cccc(C)c4nc(N[C@@H]4CCCCNC4=O)n3n2)cc1 [Example 143] | 0.884 nM | 2.42e-10 | –
25 | COc1ccc(-c2nc3c4cccc(C)c4nc(N[C@H]4CCCCNC4=O)n3n2)cc1 [Example 144] | 62.7 nM | > 2e-06 | –
